From ChEMBL document CHEMBL3046815, “Evaluation of fungicides for the management of Botryosphaeria dieback diseases of grapevines” (Pest Manag Sci, 2012)

Assays:
Neofusicoccum australe [1] = experiment: Fungicidal activity against Neofusicoccum australe J-3 assessed as mycelial growth inhibition after 48 hr; format: functional, organism-based; details: pooled result: one value given for 3 cell lines, strains, targets or settings
Neofusicoccum luteum [2] = experiment: Fungicidal activity against Neofusicoccum luteum infected Pinot noir grapevine assessed as dieback lesion length at 40 g AI /100 L applied 24 hr prior inoculation to pruning wound measured after 3 months; format: functional
Neofusicoccum luteum [3] = experiment: Fungicidal activity against Neofusicoccum luteum infected Pinot noir grapevine assessed as pathogen incidence at area beyond node compound applied 24 hr prior inoculation to pruning wound measured after 1 year; format: functional; design: concentration or dose not given beside the values
Neofusicoccum luteum [4] = experiment: Fungicidal activity against Neofusicoccum luteum infected Pinot noir grapevine assessed as non-lesion areas compound applied 24 hr prior inoculation to pruning wound measured after 1 year; format: functional; design: concentration or dose not given beside the values
Neofusicoccum luteum [5] = experiment: Fungicidal activity against Neofusicoccum luteum infected Pinot noir grapevine assessed as pathogen incidence at 40 g AI /100 L applied 24 hr prior inoculation to pruning wound measured after 3 months; format: functional
Neofusicoccum luteum [6] = experiment: Fungicidal activity against Neofusicoccum luteum N(12)2 assessed as mycelial growth inhibition after 48 hr; format: functional, organism-based; details: pooled result: one value given for 3 cell lines, strains, targets or settings
Neofusicoccum luteum [7] = experiment: Fungicidal activity against Neofusicoccum luteum infected Pinot noir grapevine assessed as mean pathogen compound applied 24 hr prior inoculation to pruning wound measured after 1 year; format: functional; design: concentration or dose not given beside the values
Diplodia mutila [8] = experiment: Fungicidal activity against Diplodia mutila Q assessed as mycelial growth inhibition after 48 hr; format: functional, organism-based; details: pooled result: one value given for 3 cell lines, strains, targets or settings
Neofusicoccum luteum [9] = experiment: Fungicidal activity against Neofusicoccum luteum infected Pinot noir grapevine assessed as pathogen incidence at closest side shoot compound applied 24 hr prior inoculation to pruning wound measured after 6 months; format: functional; design: concentration or dose not given beside the values
Neofusicoccum luteum [10] = experiment: Fungicidal activity against Neofusicoccum luteum infected Pinot noir grapevine assessed as pathogen incidence at dieback edges compound applied 24 hr prior inoculation to pruning wound measured after 1 year; format: functional; design: concentration or dose not given beside the values
Diplodia mutila [11] = experiment: Fungicidal activity against Diplodia mutila Q assessed as conidial germination inhibition after 48 hr; format: functional, organism-based; details: pooled result: one value given for 3 cell lines, strains, targets or settings
Neofusicoccum luteum [12] = experiment: Fungicidal activity against Neofusicoccum luteum infected Pinot noir grapevine assessed as pathogen incidence at dieback sites compound applied 24 hr prior inoculation to pruning wound measured after 1 year; format: functional; design: concentration or dose not given beside the values
Neofusicoccum luteum [13] = experiment: Fungicidal activity against Neofusicoccum luteum N(12)2 assessed as conidial germination inhibition after 48 hr; format: functional, organism-based; details: pooled result: one value given for 3 cell lines, strains, targets or settings
Neofusicoccum australe [14] = experiment: Fungicidal activity against Neofusicoccum australe J-3 assessed as conidial germination inhibition after 48 hr; format: functional, organism-based; details: pooled result: one value given for 3 cell lines, strains, targets or settings
Neofusicoccum luteum [15] = experiment: Fungicidal activity against Neofusicoccum luteum infected Pinot noir grapevine assessed as dieback lesion length at 4 g AI /100 L applied 24 hr prior inoculation to pruning wound measured after 3 months; format: functional
Neofusicoccum luteum [16] = experiment: Fungicidal activity against Neofusicoccum luteum infected Pinot noir grapevine assessed as pathogen incidence at 4 g AI /100 L applied 24 hr prior inoculation to pruning wound measured after 3 months; format: functional
Neofusicoccum luteum [17] = experiment: Fungicidal activity against Neofusicoccum luteum infected Pinot noir grapevine assessed as pathogen incidence at 2.5 g AI /100 L applied 24 hr prior inoculation to pruning wound measured after 3 months; format: functional
Neofusicoccum luteum [18] = experiment: Fungicidal activity against Neofusicoccum luteum infected Pinot noir grapevine assessed as dieback lesion length at 2.5 g AI /100 L applied 24 hr prior inoculation to pruning wound measured after 3 months; format: functional
Neofusicoccum luteum [19] = experiment: Fungicidal activity against Neofusicoccum luteum infected Pinot noir grapevine assessed as pathogen incidence at 55 g AI /100 L applied 24 hr prior inoculation to pruning wound measured after 3 months; format: functional
Neofusicoccum luteum [20] = experiment: Fungicidal activity against Neofusicoccum luteum infected Pinot noir grapevine assessed as dieback lesion length at 55 g AI /100 L applied 24 hr prior inoculation to pruning wound measured after 3 months; format: functional
Neofusicoccum luteum [21] = experiment: Fungicidal activity against Neofusicoccum luteum infected Pinot noir grapevine assessed as dieback lesion length at 25 g AI /100 L applied 24 hr prior inoculation to pruning wound measured after 3 months; format: functional
Neofusicoccum luteum [22] = experiment: Fungicidal activity against Neofusicoccum luteum infected Pinot noir grapevine assessed as pathogen incidence at 25 g AI /100 L applied 24 hr prior inoculation to pruning wound measured after 3 months; format: functional
Neofusicoccum luteum [23] = experiment: Fungicidal activity against Neofusicoccum luteum infected Pinot noir grapevine assessed as pathogen incidence at 210 g AI /100 L applied 24 hr prior inoculation to pruning wound measured after 3 months; format: functional
Neofusicoccum luteum [24] = experiment: Fungicidal activity against Neofusicoccum luteum infected Pinot noir grapevine assessed as dieback lesion length at 210 g AI /100 L applied 24 hr prior inoculation to pruning wound measured after 3 months; format: functional

Work on COC(=O)NC(=S)Nc1ccccc1NC(=S)NC(=O)OC [THIOPHANATE METHYL] yielded an EC50 (Neofusicoccum australe [1]) of 1.079 mgAi/L, an Activity (Neofusicoccum luteum [2]) of 53.3 mm and an Activity (Neofusicoccum luteum [3]) of 0%. For the same molecule, the Activity (Neofusicoccum luteum [4]) was 17%, the Activity (Neofusicoccum luteum [5]) was 30% and the EC50 (Neofusicoccum luteum [6]) was 1.237 mgAi/L. For the same molecule, the Activity (Neofusicoccum luteum [7]) was 20%, the EC50 (Diplodia mutila [8]) was 0.485 mgAi/L and the Activity (Neofusicoccum luteum [9]) was 3%. The Activity (Neofusicoccum luteum [10]) was 33%, the EC50 (Diplodia mutila [11]) was 0.29 mgAi/L and the Activity (Neofusicoccum luteum [12]) was 47%. The EC50 (Neofusicoccum luteum [13]) was 2.41 mgAi/L and the EC50 (Neofusicoccum australe [14]) was 5.09 mgAi/L.
With O=CNC(N1CCN(C(NC=O)C(Cl)(Cl)Cl)CC1)C(Cl)(Cl)Cl (configuration not stated) [TRIFORINE] the EC50 (Neofusicoccum australe [1]) was 28.139 mgAi/L, the EC50 (Neofusicoccum luteum [6]) was 23.73 mgAi/L and the EC50 (Diplodia mutila [8]) was 0.039 mgAi/L. The EC50 (Diplodia mutila [11]) was 49.59 mgAi/L, the EC50 (Neofusicoccum luteum [13]) was 159.9 mgAi/L and the EC50 (Neofusicoccum australe [14]) was 126.3 mgAi/L.
C[Si](Cn1cncn1)(c1ccc(F)cc1)c1ccc(F)cc1 [FLUSILAZOLE] showed an EC50 (Neofusicoccum australe [1]) of 0.002 mgAi/L, an Activity (Neofusicoccum luteum [3]) of 0% and an Activity (Neofusicoccum luteum [4]) of 0%. The EC50 (Neofusicoccum luteum [6]) was 0.003 mgAi/L, the Activity (Neofusicoccum luteum [7]) was 0% and the Activity (Neofusicoccum luteum [15]) was 41.4 mm. It also gave an EC50 (Diplodia mutila [8]) of 0.001 mgAi/L, an Activity (Neofusicoccum luteum [9]) of 0% and an Activity (Neofusicoccum luteum [16]) of 0%. The Activity (Neofusicoccum luteum [10]) was 0%, the EC50 (Diplodia mutila [11]) was 0.56 mgAi/L and the Activity (Neofusicoccum luteum [12]) was 0%. It also gave an EC50 (Neofusicoccum luteum [13]) of 1.23 mgAi/L and an EC50 (Neofusicoccum australe [14]) of 1.34 mgAi/L.
OC(c1ccc(Cl)cc1)(c1cncnc1)c1ccccc1Cl (configuration not stated) [FENARIMOL] gave an EC50 (Neofusicoccum australe [1]) of 0.58 mgAi/L, an Activity (Neofusicoccum luteum [3]) of 0% and an Activity (Neofusicoccum luteum [4]) of 20%. The Activity (Neofusicoccum luteum [17]) was 20%, the EC50 (Neofusicoccum luteum [6]) was 0.399 mgAi/L and the Activity (Neofusicoccum luteum [7]) was 27%. The EC50 (Diplodia mutila [8]) was 0.076 mgAi/L, the Activity (Neofusicoccum luteum [9]) was 0% and the Activity (Neofusicoccum luteum [10]) was 40%. It also gave an EC50 (Diplodia mutila [11]) of 0.48 mgAi/L, an Activity (Neofusicoccum luteum [12]) of 77% and an Activity (Neofusicoccum luteum [18]) of 52.8 mm. For the same molecule, the EC50 (Neofusicoccum luteum [13]) was 7.44 mgAi/L and the EC50 (Neofusicoccum australe [14]) was 22.5 mgAi/L.
With CC12CC1(C)C(=O)N(c1cc(Cl)cc(Cl)c1)C2=O (configuration not stated) [PROCYMIDONE] the EC50 (Neofusicoccum australe [1]) was 0.23 mgAi/L, the Activity (Neofusicoccum luteum [19]) was 20% and the Activity (Neofusicoccum luteum [3]) was 0%. For the same molecule, the Activity (Neofusicoccum luteum [4]) was 20%, the EC50 (Neofusicoccum luteum [6]) was 0.183 mgAi/L and the Activity (Neofusicoccum luteum [7]) was 27%. It also gave an EC50 (Diplodia mutila [8]) of 0.227 mgAi/L, an Activity (Neofusicoccum luteum [20]) of 47.8 mm and an Activity (Neofusicoccum luteum [9]) of 7%. For the same molecule, the Activity (Neofusicoccum luteum [10]) was 40%, the Activity (Neofusicoccum luteum [12]) was 70% and the EC50 (Neofusicoccum luteum [13]) was 0.02 mgAi/L. For the same molecule, the EC50 (Neofusicoccum australe [14]) was 0.01 mgAi/L.
With COC(=O)Nc1nc2ccccc2[nH]1 [CARBENDAZIM] the EC50 (Neofusicoccum australe [1]) was 0.023 mgAi/L, the Activity (Neofusicoccum luteum [3]) was 0% and the Activity (Neofusicoccum luteum [4]) was 7%. It also gave an EC50 (Neofusicoccum luteum [6]) of 0.061 mgAi/L, an Activity (Neofusicoccum luteum [7]) of 9% and an Activity (Neofusicoccum luteum [9]) of 3%. It also gave an Activity (Neofusicoccum luteum [10]) of 10%, an Activity (Neofusicoccum luteum [21]) of 33.2 mm and an Activity (Neofusicoccum luteum [22]) of 0%. The EC50 (Diplodia mutila [11]) was 0.01 mgAi/L, the Activity (Neofusicoccum luteum [12]) was 27% and the EC50 (Neofusicoccum luteum [13]) was 0.04 mgAi/L. For the same molecule, the EC50 (Neofusicoccum australe [14]) was 0.01 mgAi/L.
For N#Cc1c(Cl)c(Cl)c(Cl)c(C#N)c1Cl [CHLOROTHALONIL], the EC50 (Neofusicoccum australe [1]) was 3.847 mgAi/L, the Activity (Neofusicoccum luteum [23]) was 30% and the EC50 (Neofusicoccum luteum [6]) was 7.873 mgAi/L. The EC50 (Diplodia mutila [8]) was 0.258 mgAi/L, the EC50 (Diplodia mutila [11]) was 1.35 mgAi/L and the Activity (Neofusicoccum luteum [24]) was 51.9 mm. It also gave an EC50 (Neofusicoccum luteum [13]) of 11.15 mgAi/L and an EC50 (Neofusicoccum australe [14]) of 10.79 mgAi/L.
